In this assay the target is V1a (Homo sapiens, UniProt P37288). Briefly: Human vasopression V1a receptor binding assay. Details: host or cells: CHO cells (hV1a cell line), whole adherent cells. The following applies: hV1a cell line (CHO); for Ki: Table 18; for IC50: 1 nM 3H-AVP, Table 17, read-out: V1a Binding Affinity (IC50 (nM)). The procedure:
Human vasopression V1a receptor binding assay. A cell line expressing the human V1a receptor in CHO cells (henceforth referred to as the hV1a cell line) was obtained from Dr. Michael Brownstein, NIMH, Bethesda, Md., USA. The hV1a cDNA sequence is described by Thibonnier et al., Journal of Biological Chemistry, 269, 3304-3310 (1994), and the expression method was the same as described by Morel et al. (1992). The hV1a cell line was grown in alpha-MEM with 10% fetal bovine serum and 250 ug/ml G418 (Gibco, Grand Island, N.Y., USA). For competitive binding assay, hV1a cells were plated into 6-well culture plate at 1:10 dilution from a confluency flask, and maintained in culture for at least two days. Culture medium was then removed, cells were washed with 2 ml binding buffer (25 mM Hepes, 0.25% BSA, 1×DMEM, PH=7.0). To each well, 990 μl binding buffer containing 1 nM 3H-AVP was added, and followed by 10 μl series diluted Example compounds dissolved in DMSO. […] 100 nM cold AVP (Sigma) was used to assess non-specific binding. Cells were incubated for 45 minutes at 37° C., assay mixture was removed and each well was washed three times with PBS (pH=7.4). 1 ml 2% SDS was added per well and plates were let sit for 30 minutes. The whole content in a well was transferred to a scintillation vial. Each well was rinsed with 0.5 ml PBS which was then added to the corresponding vial. Scintillation fluid (Ecoscint, National Diagnostics, Atlanta, Ga.) was then added at 3 ml per vial. Samples were counted in a liquid scintillation counter (Beckman LS3801). IC50 values were calculated by Prism Curve fitting software.
All of the alkanedioic esters and amides exemplified in the foregoing examples dissolved in DMSO were tested in this assay. Binding curves were generated according to methods described by Thibonnier et al. (1994). [^3H]-AVP was added to the hV1a cell cultures followed by 10 fold dilutions of each test compound.

SMILES strings stand for the structures.

Sequence of V1a (P37288 whole entry): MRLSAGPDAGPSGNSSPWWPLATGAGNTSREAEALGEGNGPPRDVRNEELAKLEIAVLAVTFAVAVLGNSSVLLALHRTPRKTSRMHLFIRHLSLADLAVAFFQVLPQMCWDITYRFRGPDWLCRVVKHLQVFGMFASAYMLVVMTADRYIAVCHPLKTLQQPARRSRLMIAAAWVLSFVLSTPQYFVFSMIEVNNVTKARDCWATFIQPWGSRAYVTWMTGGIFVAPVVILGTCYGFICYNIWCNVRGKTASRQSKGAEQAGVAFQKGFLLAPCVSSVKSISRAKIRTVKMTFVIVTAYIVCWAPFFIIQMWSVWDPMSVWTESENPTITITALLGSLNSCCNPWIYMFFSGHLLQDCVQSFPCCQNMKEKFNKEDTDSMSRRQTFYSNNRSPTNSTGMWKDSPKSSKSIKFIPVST

Regarding `O=C(NCc1cccc(C(F)(F)F)c1)[C@H](CCC(=O)N1CCN(Cc2ccccc2)CC1)N1C(=O)[C@@H](N2C(=O)OC[C@@H]2c2ccccc2)[C@H]1/C=C/c1ccccc1` [Example 95], the Ki is 1.08 nM.
For `O=C(C[C@H](C(=O)NCc1cccc(C(F)(F)F)c1)N1C(=O)[C@@H](N2C(=O)OC[C@@H]2c2ccccc2)[C@H]1/C=C/c1ccccc1)NC1CCN(Cc2ccccc2)CC1` [Example 134C], the IC50 turned out to be 9.1 nM and affinity was put at a Ki of 5.58 nM.
Take `COc1ccccc1C=CC1C(N2C(=O)OCC2c2ccccc2)C(=O)N1C(CC(=O)N1CCC(N2CCCCC2)CC1)C(=O)NCc1cccc(C(F)(F)F)c1` [Example 231, 2(R)-[[4-(Piperidinyl)piperidinyl]carbonylmethyl]-2-[3(S)-(4(S)-phenyloxazolidin-2-on-3-yl)-4(R)-(2′-methoxystyr-2-yl)azetidin-2-on-1-yl]acetic acid N-(3-trifluoromethylbenzyl)amide]: the IC50 was 6.12 nM and the Ki came to 3.75 nM.
On the same counts, the results for `CN(Cc1cccc(Cl)c1Cl)C(=O)[C@H](CCC(=O)N1CCN(C2CCCCC2)CC1)N1C(=O)[C@@H](N2C(=O)OC[C@@H]2c2ccccc2)[C@H]1/C=C/c1ccccc1` [Example 221B] are 0.59 nM and 0.36 nM.
With `CC(C)N1CCN(C(=O)CC[C@@H](C(=O)NCc2cccc(C(F)(F)F)c2)N2C(=O)[C@@H](N3C(=O)OC[C@@H]3c3ccccc3)[C@H]2/C(Cl)=C/c2ccccc2)CC1` [Example 230], the IC50 came out at 7.07 nM and the Ki amounted to 4.33 nM.
`O=C(NCc1cccc(C(F)(F)F)c1)[C@H](CC(=O)N1CCC(CCN2CCCCC2)CC1)N1C(=O)[C@@H](N2C(=O)OC[C@@H]2c2ccccc2)[C@H]1/C=C/c1ccccc1` [Example 86A]: the IC50 is 9.79 nM and affinity was put at a Ki of 6 nM.
`CCCCN1CCN(C(=O)C(C(=O)NCc2cccc(C(F)(F)F)c2)N2C(=O)[C@@H](N3C(=O)OC[C@@H]3c3ccccc3)[C@H]2/C=C/c2ccccc2)CC1` (mixture of isomers) [Example 40] yielded a Ki of 6.5 nM.
Turning to `CCN1CCN(C(=O)CC[C@@H](C(=O)NCc2cccc(C(F)(F)F)c2)N2C(=O)[C@@H](N3C(=O)OC[C@@H]3c3ccccc3)[C@H]2/C=C/c2ccccc2)CC1` [Example 221AC], the IC50 is under 10 nM.
With `O=C(NCc1cccs1)[C@H](CCC(=O)N1CCN(C2CCCCC2)CC1)N1C(=O)[C@@H](N2C(=O)OC[C@@H]2c2ccccc2)[C@H]1/C=C/c1ccccc1` [Example 213], the IC50 is 0.78 nM and the Ki is 0.48 nM.
As to `O=C(NC1CCCc2ccccc21)C(CCC(=O)N1CCN(C2CCCCC2)CC1)N1C(=O)C(N2C(=O)OCC2c2ccccc2)C1C=Cc1ccccc1` (single isomer, unassigned) [Example 214], the IC50 came out at 1.86 nM and the affinity corresponds to a Ki of 1.14 nM.
In the case of `CCN1CCN(C(=O)CC[C@@H](C(=O)NCc2cccc(C(F)(F)F)c2)N2C(=O)[C@@H](N3C(=O)OC[C@@H]3c3ccccc3)[C@H]2/C(Cl)=C/c2ccccc2)CC1` [Example 228], the IC50 was found to be 13.6 nM and the inhibition constant (Ki) was found to be 8.35 nM.
On the same counts, the results for `O=C(NC1(c2ccccc2)CCCCC1)[C@H](CCC(=O)N1CCN(C2CCCCC2)CC1)N1C(=O)[C@@H](N2C(=O)OC[C@@H]2c2ccccc2)[C@H]1/C=C/c1ccccc1` [Example 221G] are 1.5 nM and 0.93 nM.
For `Cc1ccccc1CNC(=O)[C@H](CCC(=O)N1CCN(C2CCCCC2)CC1)N1C(=O)[C@@H](N2C(=O)OC[C@@H]2c2ccccc2)[C@H]1/C=C/c1ccccc1` [Example 192], the IC50 is under 10 nM.
Turning to `O=C(NCc1ccccn1)[C@H](CCC(=O)N1CCN(C2CCCCC2)CC1)N1C(=O)[C@@H](N2C(=O)OC[C@@H]2c2ccccc2)[C@H]1/C=C/c1ccccc1` [Example 208], the IC50 is 16.3 nM and the Ki came to 10 nM.
Turning to `O=C([C@@H](COCc1ccccc1)N1C(=O)[C@@H](N2C(=O)OC[C@@H]2c2ccccc2)[C@H]1/C=C/c1ccccc1)N1CCC(CCN2CCCCC2)CC1` [Example 233], the IC50 turned out to be 0.56 nM and the affinity, expressed as Ki, was 0.34 nM.
As for `O=C(C[C@@H](C(=O)NCc1cccc(C(F)(F)F)c1)N1C(=O)[C@@H](N2C(=O)OC[C@@H]2c2ccccc2)[C@H]1/C=C/c1ccccc1)N[C@H]1CCN(Cc2ccccc2)C1` [Example 85], the affinity corresponds to a Ki of 3.6 nM.
As for `O=C(NC1(c2ccccc2F)CCCC1)[C@H](CCC(=O)N1CCN(C2CCCCC2)CC1)N1C(=O)[C@@H](N2C(=O)OC[C@@H]2c2ccccc2)[C@H]1/C=C/c1ccccc1` [Example 221H], the IC50 was found to be 4 nM and the affinity corresponds to a Ki of 2.5 nM.
Take `Cc1cccc(CN(C)C(=O)[C@H](CCC(=O)N2CCN(C3CCCCC3)CC2)N2C(=O)[C@@H](N3C(=O)OC[C@@H]3c3ccccc3)[C@H]2/C=C/c2ccccc2)c1` [Example 221A]: the IC50 is 2.71 nM and the Ki was determined as 1.66 nM.
On the same counts, the results for `CCCCN1CCN(C(=O)CC[C@@H](C(=O)NCc2cccc(C(F)(F)F)c2)N2C(=O)C(N3C(=O)OC[C@@H]3c3ccccc3)C2/C(Br)=C/c2ccccc2)CC1` (some centres unmarked) [Example 230L] are 12.7 nM and 7.8 nM.
On the same counts, the results for `CN(Cc1cc(Cl)cc(Cl)c1)C(=O)[C@H](CCC(=O)N1CCN(C2CCCCC2)CC1)N1C(=O)[C@@H](N2C(=O)OC[C@@H]2c2ccccc2)[C@H]1/C=C/c1ccccc1` [Example 221E] are 20.2 nM and 12.4 nM.
For `O=C(NCc1cccc(Br)c1)[C@H](CCC(=O)N1CCN(C2CCCCC2)CC1)N1C(=O)[C@@H](N2C(=O)OC[C@@H]2c2ccccc2)[C@H]1/C=C/c1ccccc1` [Example 190], the IC50 is 0.88 nM and the Ki came out at 0.54 nM.
As to `O=C(NCc1cccc(C(F)(F)F)c1)[C@@H](CCC(=O)N1CCN(C2CCCCC2)CC1)N1C(=O)[C@@H](N2C(=O)OC[C@@H]2c2ccccc2)[C@H]1/C=C/c1ccccc1` [Example 139], affinity was put at a Ki of 5.84 nM.
For `O=C(NC1CCc2ccccc21)[C@H](CCC(=O)N1CCN(C2CCCCC2)CC1)N1C(=O)[C@@H](N2C(=O)OC[C@@H]2c2ccccc2)[C@H]1/C=C/c1ccccc1` (some centres unmarked) [Example 216], the IC50 amounted to 1.83 nM and the Ki amounted to 1.12 nM.
On the same counts, the results for `CCCN1CCN(C(=O)CC[C@@H](C(=O)NCc2cccc(C(F)(F)F)c2)N2C(=O)[C@@H](N3C(=O)OC[C@@H]3c3ccccc3)[C@H]2/C=C/c2ccccc2)CC1` [Example 120B] are 2.93 nM and 1.79 nM.
As for `O=C(NCc1cc(C(F)(F)F)cc(C(F)(F)F)c1)[C@H](CCC(=O)N1CCN(C2CCCCC2)CC1)N1C(=O)[C@@H](N2C(=O)OC[C@@H]2c2ccccc2)[C@H]1/C=C/c1ccccc1` [Example 188], the IC50 was 7.26 nM.
Same read-out and setting: to `O=C(NCc1ccc(Cl)c(Cl)c1)[C@H](CCC(=O)N1CCN(C2CCCCC2)CC1)N1C(=O)[C@@H](N2C(=O)OC[C@@H]2c2ccccc2)[C@H]1/C=C/c1ccccc1` [Example 173] belongs under 100 nM.
As for `O=C(NCc1cccc(C(F)(F)F)c1)C(C(=O)N1CCN(CCc2ccccc2)CC1)N1C(=O)[C@@H](N2C(=O)OC[C@@H]2c2ccccc2)[C@H]1/C=C/c1ccccc1` (mixture of isomers) [Example 38], the Ki is 85 nM. This counts as double-digit nanomolar.
`O=C(NCc1ccc(Cl)c(C(F)(F)F)c1)[C@H](CCC(=O)N1CCN(C2CCCCC2)CC1)N1C(=O)[C@@H](N2C(=O)OC[C@@H]2c2ccccc2)[C@H]1/C=C/c1ccccc1` [Example 181]: the IC50 is under 50 nM.
On to `O=C(NCc1ccccc1)[C@H](CCC(=O)N1CCN(C2CCCCC2)CC1)N1C(=O)[C@@H](N2C(=O)OC[C@@H]2c2ccccc2)[C@H]1/C=C/c1ccccc1` [Example 191], for which the IC50 amounted to 2.92 nM and the affinity corresponds to a Ki of 1.79 nM.
On the same counts, the results for `O=C(NCc1cccc(C(F)(F)F)c1)[C@H](CCC(=O)N1CCN(C2CCCCC2)CC1)N1C(=O)[C@@H](N2C(=O)OC[C@@H]2c2ccccc2)[C@H]1CCc1ccccc1` [Example 236, (2S)-[(4-cyclohexylpiperazinyl)carbonylethyl]-2-[3(S)-(4(S)-phenyloxazolidin-2-on-3-yl)-4(R)-(2-phenyleth-1-yl)azetidin-2-on-1-yl]acetic acid N-(3-trifluoromethylbenzyl)amide] are 1.68 nM and 1.03 nM.
On the same counts, the results for `O=C(NCc1cc(Cl)ccc1Cl)[C@H](CCC(=O)N1CCN(C2CCCCC2)CC1)N1C(=O)[C@@H](N2C(=O)OC[C@@H]2c2ccccc2)[C@H]1/C=C/c1ccccc1` [Example 175] are 4.56 nM and 2.79 nM.
Turning to `O=C(NC1(c2cccc(F)c2)CCCC1)[C@H](CCC(=O)N1CCN(C2CCCCC2)CC1)N1C(=O)[C@@H](N2C(=O)OC[C@@H]2c2ccccc2)[C@H]1/C=C/c1ccccc1` [Example 221AM], the Ki turned out to be 2.7 nM. That is a single-digit nanomolar value.

These data come from patent US9597314B2, “Beta-lactamylalkanoic acids for treating premenstrual disorders” (AZEVAN PHARMACEUTICALS, INC., priority 2005, dated 2017).
